The record followed here is DBAASP.

Converted amounts (≈) assume the structure as drawn. “And” between values parts separate entries of the source, which are not always exact repeats. Equal values may be shown once. Where only a bound is given, the exact number is not on record here.

Assay in all cases: ≥ marks a high value that may be exact or a test limit, other limits are often not marked, values filed in µg/mL are converted to µM
Assay [1] deals with Streptococcus mutans UA159.
Assay [2] concerns Streptococcus sanguinis NY101.
Assay [3] concerns Staphylococcus aureus.
Assay [4] has as its system Enterococcus faecalis.
Assay [5] relates to Pseudomonas aeruginosa PAK.
Assay [6] deals with Streptococcus sobrinus ATCC 33478.
The test system of assay [7] is Escherichia coli W3110.
Assay [8] has as its system Pseudomonas aeruginosa MR3007.
Assay [9] concerns Staphylococcus aureus 930918-3.
For assay [10], the system named is Escherichia coli D31.
Assay [11] relates to Salmonella enterica subsp. enterica serovar Typhimurium ATCC 700408.
Assay [12] has as its system Klebsiella pneumoniae K6 ATCC 700603.
For assay [13], the system named is Staphylococcus aureus 1056.
In assay [14] the test system is Escherichia coli O157:H7.
Assay [15] relates to Bacillus subtilis DSM 402.
In assay [16] the test system is Escherichia coli DSM 30083.
Assay [17] concerns Mammaliicoccus lentus.
The subject of assay [18] is Phytophthora nicotianae PG344.
The test system of assay [19] is Yersinia pseudotuberculosis YPIII.
Assay [20] has as its system Candida tropicalis.
The test system of assay [21] is Bacillus megaterium Bm11.
Assay [22] has as its system Micrococcus luteus.
Assay [23] concerns Pseudomonas syringae pv. tabaci.
Assay [24] relates to Escherichia coli ATCC 25922.
The subject of assay [25] is Bacillus licheniformis X39.
For assay [26], the system named is Staphylococcus carnosus KHS.
The subject of assay [27] is Serratia rubidaea X01.
Assay [28] has as its system Klebsiella pneumoniae 08040724.
Assay [29] concerns Staphylococcus aureus ATCC 25923.
In assay [30] the test system is Enterococcus faecalis 981.
Assay [31] concerns Rhodococcus rhodochrous X15.
Assay [32] has as its system Psychrobacter faecalis X29.
Assay [33] deals with Escherichia coli KCCM 11569.
Assay [34] deals with Bacillus subtilis KCCM 11495.

For `CC[C@H](C)[C@H](NC(=O)[C@H](Cc1ccccc1)NC(=O)CNC(=O)CNC(=O)CNC(=O)[C@H](Cc1ccccc1)NC(=O)[C@H](Cc1cnc[nH]1)NC(=O)[C@H](CC(C)C)NC(=O)[C@H](Cc1cnc[nH]1)NC(=O)[C@H](Cc1ccccc1)NC(=O)[C@H](Cc1cnc[nH]1)NC(=O)[C@@H](N)Cc1ccccc1)C(=O)N[C@@H](CCCCN)C(=O)N[C@@H](Cc1cnc[nH]1)C(=O)N[C@@H](Cc1ccccc1)C(=O)N[C@H](C(=O)N[C@@H](Cc1cnc[nH]1)C(=O)N[C@@H](CCCN=C(N)N)C(=O)N[C@@H](Cc1ccccc1)C(N)=O)[C@@H](C)CC` [FHFHLHFGGGFIKHFIHRF], the minimum inhibitory concentration (MIC) in [1] was 13.4 µM (≈ 32 µg/mL); in [2], 26.2 µM (≈ 62.5 µg/mL); in [3] it was 52.5 µM (≈ 125 µg/mL); in assay [4] it was 26.2 µM (≈ 62.5 µg/mL); in assay [5], 26.2 µM (≈ 62.5 µg/mL); in [6], 26.2 µM (≈ 62.5 µg/mL). For the same compound, the MIC in [7] worked out at 26.2 µM (≈ 62.5 µg/mL).

For `CC[C@H](C)[C@H](NC(=O)[C@H](CCCCN)NC(=O)[C@H](CCCCN)NC(=O)[C@H](CC(C)C)NC(=O)[C@H](CCCCN)NC(=O)[C@H](CCC(=O)O)NC(=O)[C@H](CCCCN)NC(=O)[C@@H](NC(=O)[C@H](CCCCN)NC(=O)[C@H](CC(N)=O)NC(=O)[C@H](CCCN=C(N)N)NC(=O)[C@H](Cc1ccccc1)NC(=O)[C@H](CCCCN)NC(=O)[C@H](CCCN=C(N)N)NC(=O)[C@H](CC(C)C)NC(=O)[C@H](CCCN=C(N)N)NC(=O)[C@H](CCCCN)NC(=O)[C@H](CCCN=C(N)N)NC(=O)[C@H](CC(C)C)NC(=O)CN)[C@@H](C)CC)C(=O)NCC(=O)O` [GLRKRLRKFRNKIKEKLKKIG], the MIC was 0.27 µM and 0.34 µM in assay [8]; 0.69 µM and 0.84 µM in [9].

Turning to `CC[C@H](C)[C@H](NC(=O)[C@H](Cc1ccc(O)cc1)NC(=O)[C@@H](NC(=O)[C@@H]1CCCN1C(=O)[C@H](CCCN=C(N)N)NC(=O)[C@H](CC(N)=O)NC(=O)[C@H](CC(N)=O)NC(=O)CN)C(C)C)C(=O)N1CCC[C@H]1C(=O)N[C@@H](CCC(N)=O)C(=O)N1CCC[C@H]1C(=O)N[C@@H](CCCN=C(N)N)C(=O)N1CCC[C@H]1C(=O)N1CCC[C@H]1C(=O)N[C@@H](Cc1cnc[nH]1)C(=O)N1CCC[C@H]1C(=O)N[C@@H](CC(C)C)C(N)=O` [GNNRPVYIPQPRPPHPL], the figures for the MIC in [10], in assay [11] and in assay [12] were at least 65.6 µM, at least 32.8 µM and at least 32.8 µM, respectively.

As for `CC[C@H](C)[C@@H]1NC(=O)[C@H](CCCN=C(N)N)NC(=O)[C@H](CC(C)C)NC(=O)CNC(=O)[C@@H]2CSSC[C@@H]3NC(=O)[C@H](CC(C)C)NC(=O)CNC(=O)[C@H](CC(C)C)NC(=O)[C@H](Cc4ccccc4)NC(=O)[C@H](CCCN=C(N)N)NC(=O)[C@H](CO)NC(=O)[C@@H]4CCCN4C(=O)[C@H](Cc4ccccc4)NC(=O)[C@H](CC(N)=O)NC(=O)[C@H](CSSC[C@@H](C(=O)N[C@@H](CO)C(=O)N[C@@H](CCCN=C(N)N)C(=O)N[C@H](C(=O)N[C@@H](Cc4c[nH]c5ccccc45)C(=O)N[C@H](C(=O)O)C(C)C)C(C)C)NC(=O)[C@H](CSSC[C@H](NC(=O)[C@H](CCC(N)=O)NC(=O)[C@H](C)NC(=O)[C@H](CCC(=O)O)NC(=O)[C@H](CC(N)=O)NC(=O)[C@@H](NC(=O)[C@@H]4CCCN4C(=O)[C@@H](N)CC(C)C)C(C)C)C(=O)N[C@@H](CCCN=C(N)N)C(=O)N[C@@H](CCC(N)=O)C(=O)N[C@@H](C(C)C)C(=O)NCC(=O)NCC(=O)N[C@@H](Cc4ccc(O)cc4)C(=O)N2)NC(=O)[C@@H]2CCCN2C(=O)[C@H](Cc2cnc[nH]2)NC(=O)[C@H](CC(N)=O)NC(=O)[C@H](CCCN=C(N)N)NC(=O)[C@H]([C@@H](C)O)NC3=O)NC1=O` [LPVNEAQCRQVGGYCGLRICNFPSRFLGLCTRNHPCCSRVWV], the MIC stood at 2.41 µM (≈ 11.5 µg/mL) in [13] and 2.53 µM (≈ 12 µg/mL) in [14].

Consider `CC(=O)N[C@@H](CCCN=C(N)N)C(=O)N[C@@H](Cc1c[nH]c2ccccc12)C(=O)N[C@@H](CCCN=C(N)N)C(=O)N[C@@H](Cc1c[nH]c2ccccc12)C(=O)N[C@@H](CCCN=C(N)N)C(=O)N[C@@H](Cc1c[nH]c2ccccc12)C(N)=O` [RWRWRW], for which the minimal inhibitory concentration (MIC) in assay [15] and in assay [16] was at least 45 µM in each case.

As to `C[C@H](NC(=O)[C@@H](N)CO)C(=O)N1CCC[C@H]1C(=O)N[C@@H](CCCN=C(N)N)C(=O)NCC(=O)N[C@H]1CSSC[C@@H](C(=O)N[C@@H](CCCCN)C(N)=O)NC(=O)[C@@H]2CCCN2C(=O)[C@H](CCCCN)NC(=O)[C@@H]2CCCN2C(=O)[C@@H]2CCCN2C(=O)[C@H](Cc2ccc(O)cc2)NC(=O)[C@H](CO)NC(=O)[C@H](CCCCN)NC(=O)[C@H]([C@@H](C)O)NC(=O)[C@H](Cc2c[nH]c3ccccc23)NC1=O` [SAPRGCWTKSYPPKPCK], the MIC in assay [17] is 7 µM (≈ 13.3 µg/mL); in [18], at least 32 µM; in [19] it was 9 µM (≈ 17.1 µg/mL); in assay [20], 7.4 µM (≈ 14.1 µg/mL); in assay [21] it was 3 µM (≈ 5.71 µg/mL); in [22] it was 5 µM (≈ 9.52 µg/mL). Besides, the minimal inhibitory concentration (MIC) in assay [23] was at least 80 µM.

As to `CC[C@H](C)[C@H](NC(=O)[C@H](CO)NC(=O)[C@H](Cc1ccccc1)NC(=O)[C@H](CC(C)C)NC(=O)[C@@H](N)CO)C(=O)N[C@@H](Cc1ccccc1)C(=O)N[C@@H](CCCCN)C(=O)N[C@H](C(=O)N[C@@H](C)C(=O)N[C@@H](C)C(=O)N[C@@H](CCCCN)C(=O)N[C@@H](Cc1ccccc1)C(=O)N[C@H](C(=O)NCC(=O)N[C@@H](CCCCN)C(=O)N[C@@H](CC(N)=O)C(=O)N[C@@H](CC(C)C)C(=O)N[C@@H](CC(C)C)C(=O)N[C@@H](CCCCN)C(=O)N[C@@H](CCC(N)=O)C(=O)N[C@@H](C)C(=O)NCC(=O)N[C@@H](CCCCN)C(=O)N[C@@H](C)C(=O)NCC(=O)N[C@@H](CC(C)C)C(=O)N[C@@H](CCC(=O)O)C(=O)N[C@H](C(=O)N[C@@H](CC(C)C)C(=O)N[C@@H](C)C(=O)N[C@H]1CSSC[C@@H](C(=O)O)NC(=O)[C@H](CCC(=O)O)NC(=O)[C@H](CC(N)=O)NC(=O)[C@H](CCCCN)NC(=O)[C@H](C)NC(=O)[C@H](CCCCN)NC1=O)[C@@H](C)O)C(C)C)[C@@H](C)O` [SLFSIFKTAAKFVGKNLLKQAGKAGLETLACKAKNEC], the MIC in assay [24] was 75 µM (≈ 295 µg/mL); in [25], 9 µM (≈ 35.3 µg/mL); in [26], 1.2 µM (≈ 4.71 µg/mL); in assay [27], 1.2 µM (≈ 4.71 µg/mL); in assay [28], at least 150 µM; in assay [29], 9 µM (≈ 35.3 µg/mL). The MIC stood at 19 µM (≈ 74.6 µg/mL) in assay [30], 1.2 µM (≈ 4.71 µg/mL) in assay [31] and 4.5 µM (≈ 17.7 µg/mL) in assay [32].

`CC(C)C[C@H](NC(=O)CNC(=O)[C@H](Cc1cnc[nH]1)NC(=O)[C@H](Cc1cnc[nH]1)NC(=O)[C@H](CC(C)C)NC(=O)[C@H](CC(C)C)NC(=O)[C@H](C)NC(=O)[C@H](CC(N)=O)NC(=O)[C@H](CC(C)C)NC(=O)[C@@H](N)Cc1c[nH]c2ccccc12)C(=O)N[C@@H](CC(N)=O)C(=O)N[C@@H](CS)C(=O)N[C@@H](C)C(=O)N[C@@H](CCCCN)C(N)=O` [WLNALLHHGLNCAK]: the MIC in assay [33] and in assay [34] was at least 40.3 µM each time.

What is called MIC is the least concentration at which growth counts as inhibited. The low end stands for inhibition by little substance, the high end for a need for much substance.
